Results reported in patent publication US8273404B2, “Extraction of solvents from drug containing polymer reservoirs” (Cordis Corporation, priority 2008, dated 2012).

Experiments:
[1] = Liquid formulations of sirolimus and CCI-779: concentration by liquid chromatography/HPLC, visual observation; assay type: physicochemical
[2] = In vivo release kinetics from coated stents, porcine pharmacokinetics studies; details: combination coatings with rapamycin
From the text: The topcoat is two hundred micro grams.
FIG. 61 is a graphical representation of the in vivo release kinetics of cladribine from a polymeric coating on Bx Velocity® stents, available from Cordis Corporation, implanted in a Yorkshire pig. The basecoat comprises an 85/15 ratio of PVDF and HFP and cladribine for a total combined weight of one thousand eight hundred micrograms (cladribine comprising thirty percent of the total weight). The topcoat comprises an 85/15 ratio of PVDF/HFP and no cladribine. The total weight of the topcoat is three hundred micrograms.
(§1) The basecoat is applied to Bx Velocity® stents and implanted into Yorkshire pigs.
as §1
Another critical parameter for the performance of the thrombus resistance of a device coated with cilostazol is the duration of the drug release from the coating. This is of particular significance in the two weeks after device implantation. […] The purpose of the porcine PK study is to assess the local pharmacokinetics of a drug eluting stent at a given implantation time. Normally three stents are implanted in three different coronary arteries in a pig for a given time point and then retrieved for total drug recovery analysis. The stents are retrieved at predetermined time points; namely, 1, 3 and 8 days. The stents are extracted and the total amount of drug remaining on the stents is determined by analysis utilizing HPLC (high performance liquid chromatography) for total drug amount. The difference between the original amount of drug on the stent and the amount of drug retrieved at a given time represents the amount of drug released in that period. The continuous release of drug into surrounding arterial tissue is what prevents the neointimal growth and restenosis in the coronary artery. A normal plot represents the percentage of total drug released (%, y-axis) vs. time of implantation (day, x-axis). […] Curve 8102 represents cilostazol and curve 8104 represents sirolimus. […] In this exemplary configuration, the stent 8300 is coated with two layers. […]

tumor cell lines = tumor cell lines (Woo et al.); cited from earlier work
[3] = system: human coronary artery smooth muscle cell; assay: Inhibition of coronary artery smooth muscle cell proliferation by trichostatin A, in vitro cell culture study; assay type: cell-based; details: read-out: anti-proliferative IC50
From the text: FIG. 51 is a graph of the inhibition of coronary artery smooth muscle cells by trichostatin A in a cell culture study.

[4] = In vitro release kinetics from coated stents; assay type: physicochemical; details: single-layer sirolimus/cilostazol coating of FIG. 83
[5] = system: human coronary artery smooth muscle cells; assay: Anti-proliferative activity in cultured human coronary artery smooth muscle cells stimulated with two percent fetal bovine serum; assay type: cell-based; details: for effect of the added agent on the anti-proliferative activity of rapamycin: agent added to rapamycin treated human coronary artery smooth muscle cells; for effect of the added agent on the anti-proliferative activity of rapamycin / inhibition of human coronary artery smooth muscle cell proliferation (in words): two percent fetal bovine serum; for inhibition of human coronary artery smooth muscle cell proliferation (in words): agent alone
From the text: The multiple curves represent various concentrations of mycophenolic acid ranging from zero to one thousand nanomolar concentrations.
FIG. 58 illustrates, in graphical format, the anti-proliferative activity of cladribine in non-synchronized cultured human coronary artery smooth muscle cells stimulated with two percent fetal bovine serum.
The multiple curves represent various concentrations of cladribine ranging from zero to nine hundred nanomolar concentrations.
(§2) The multiple curves represent various concentrations of topotecan ranging from zero to three hundred nanomolar concentrations.
(§3) The multiple curves represent various concentrations of etoposide ranging from zero to eight hundred nanomolar concentrations.
The multiple curves represent various concentrations of Panzem® ranging from zero to 100 micromolar concentrations.
Curve 8702 illustrates the percent inhibition for various concentrations. In FIG. 88, the six curves 8802, 8804, 8806, 8808, 8810 and 8812 represent various concentrations of PX867 with various concentrations of sirolimus. […] More specifically, curve 8812 illustrates the percent inhibition for a 240 nM PX-867 concentration. […] This may be compared to curve 8804 which represents a 15 nM PX-867 concentration.

[6] = Cell viability assay (cytotoxicity of topotecan, etoposide); assay type: cell-based
From the text: as §2, §3

[7] = system: human coronary artery smooth muscle cell; assay: MTS cytotoxicity assay of Panzem; assay type: cell-based; details: concentrations up to 30,000.00 nanomolar
From the text: Typically, a control is utilized to determine baseline toxicity.

[8] = Injectable liquid formulations of paclitaxel: composition and observation; assay type: physicochemical
From the text: This solution remained clear.

## CO[C@H]1C[C@@H]2CC[C@@H](C)[C@@](O)(O2)C(=O)C(=O)N2CCCC[C@H]2C(=O)O[C@H]([C@H](C)C[C@@H]2CC[C@@H](O)[C@H](OC)C2)CC(=O)[C@H](C)/C=C(\C)[C@@H](O)[C@@H](OC)C(=O)[C@H](C)C[C@H](C)/C=C/C=C/C=C/1C [rapamycin]
[1]; 4 mg/ml PEG 200 formulation
  sirolimus concentration relative to the solubility of sirolimus in water: about four hundred to about one thousand times higher
[2]
  relative elution from polymeric stent coating in vivo (in words): slower release rate than that of mycophenolic acid

## CC(/C=C/C(=O)NO)=C\[C@@H](C)C(=O)c1ccc(N(C)C)cc1 [trichostatin A]
Tumor cell lines
  anti-proliferative IC50's: low nM range
[3]
  IC50: ~6 nM

## O=C1CCc2cc(OCCCCc3nnnn3C3CCCCC3)ccc2N1 [cilostazol, 6[4-(1-cyclohexyl-1H-tetrazol-5-yl)-butoxy]-3,4-dihydro-2-(1H)-quinolinone]
[4]
  release in vitro: ~35%

## COc1c(C)c2c(c(O)c1C/C=C(\C)CCC(=O)O)C(=O)OC2 [mycophenolic acid]
[2]
  relative elution from polymeric stent coating in vivo (in words): elutes more completely over a shorter duration than the rapamycin
[5]
  effect of the added agent on the anti-proliferative activity of rapamycin: potentiates the anti-proliferative activity of rapamycin

## CO[C@H]1C[C@@H]2CC[C@@H](C)[C@@](O)(O2)C(=O)C(=O)N2CCCC[C@H]2C(=O)O[C@H]([C@H](C)C[C@@H]2CC[C@@H](OC(=O)C(C)(CO)CO)[C@H](OC)C2)CC(=O)[C@H](C)/C=C(\C)[C@@H](O)[C@@H](OC)C(=O)[C@H](C)C[C@H](C)/C=C/C=C/C=C/1C [CCI-779]
[1]; ethanol, Vitamin E TPGS, water
  concentration of CCI-779 in the final solution (HPLC): 15000 µg/mL

## Nc1nc(Cl)nc2c1ncn2[C@H]1C[C@H](O)[C@@H](CO)O1 [cladribine, 2-chlorodeoxyadenosine]
[2]
  relative elution from polymeric stent coating in vivo (in words): elutes more rapidly than rapamycin
[5]
  effect of the added agent on the anti-proliferative activity of rapamycin: potentiate the anti-proliferative activity of rapamycin
  inhibition of human coronary artery smooth muscle cell proliferation (in words): completely inhibits human coronary artery smooth muscle cell proliferation

## CC[C@@]1(O)C(=O)OCc2c1cc1n(c2=O)Cc2cc3c(CN(C)C)c(O)ccc3nc2-1 [topotecan]
[6]; concentrations up to one micromolar
  cytotoxicity in cell viability assay: non-cytotoxic
[5]
  effect of the added agent on the anti-proliferative activity of rapamycin: potentiate the anti-proliferative activity of rapamycin

## COc1cc2c(cc1O)CC[C@@H]1[C@@H]2CC[C@]2(C)[C@@H](O)CC[C@@H]12 [Panzem®, 2-methoxyestradiol]
[7]
  cell survival in MTS assay: do not reduce human coronary artery smooth muscle cell survival
[5]
  effect of the added agent on the anti-proliferative activity of rapamycin: increases the percent of inhibition of rapamycin alone
  inhibition of human coronary artery smooth muscle cell proliferation (in words): extremely effective inhibitor

## COc1cc([C@@H]2c3cc4c(cc3[C@@H](O[C@@H]3O[C@@H]5CO[C@@H](C)O[C@H]5[C@H](O)[C@H]3O)[C@H]3COC(=O)[C@H]23)OCO4)cc(OC)c1O [etoposide]
[6]; concentrations up to ten micromolar
  cytotoxicity in cell viability assay: non-cytotoxic
[5]
  effect of the added agent on the anti-proliferative activity of rapamycin: potentiate the anti-proliferative activity of rapamycin

## COC[C@H]1OC(=O)/C(=C\N2CCCC2)C2=C(O)C(=O)C3=C([C@H](OC(C)=O)C[C@]4(C)C(=O)CC[C@@H]34)[C@]21C [PX-867]
[5]; PX867 alone at a concentration of about 10^−6
  percent inhibition of coronary artery smooth muscle cell proliferation: close to one hundred percent inhibition
[5]
  effect of the added agent on the anti-proliferative activity of rapamycin: strong synergistic effect

## CC(=O)O[C@H]1C(=O)[C@@]2(C)[C@H]([C@H](OC(=O)c3ccccc3)[C@]3(O)C[C@H](OC(=O)[C@H](O)[C@@H](NC(=O)c4ccccc4)c4ccccc4)C(C)=C1C3(C)C)[C@]1(OC(C)=O)CO[C@@H]1C[C@@H]2O [paclitaxel]
[8]
  paclitaxel concentration as true liquid formulation: up to 2.5 mg/ml
[8]; 2.5 mg/ml formulation
  fold higher than the solubility of paclitaxel in water: about 1000 fold
